Test results taken from ChEMBL document CHEMBL4376853, “Synthesis and structure-activity relationship studies of α-naphthoflavone derivatives as CYP1B1 inhibitors” (Eur J Med Chem, 2020).

How the values were obtained:
[1] = biological target: T1, Cytochrome P450 1A1 (Homo sapiens, UniProt P04798); test: Inhibition of human recombinant CYP1A1 using 7-ethoxyresorufin as substrate in presence of glucose-6-phosphate, glucose-6-phosphate dehydrogenase and NADPH-generating system incubated for 15 mins by fluorometry; format: ADME
T1 sequence (P04798 whole entry): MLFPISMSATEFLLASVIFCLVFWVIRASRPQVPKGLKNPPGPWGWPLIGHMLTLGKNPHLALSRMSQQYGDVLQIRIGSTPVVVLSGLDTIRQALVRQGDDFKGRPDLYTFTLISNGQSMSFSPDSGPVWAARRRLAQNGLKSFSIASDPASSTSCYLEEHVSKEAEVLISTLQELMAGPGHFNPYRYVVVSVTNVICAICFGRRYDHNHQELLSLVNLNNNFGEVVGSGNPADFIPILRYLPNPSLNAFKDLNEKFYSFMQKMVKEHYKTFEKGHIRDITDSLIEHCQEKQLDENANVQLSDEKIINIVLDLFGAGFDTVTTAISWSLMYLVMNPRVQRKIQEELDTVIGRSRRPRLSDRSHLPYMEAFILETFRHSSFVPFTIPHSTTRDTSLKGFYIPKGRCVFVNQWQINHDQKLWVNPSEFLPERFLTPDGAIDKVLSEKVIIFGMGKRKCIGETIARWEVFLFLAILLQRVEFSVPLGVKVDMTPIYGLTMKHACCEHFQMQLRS

[2] = biological target: T2, Cytochrome P450 1A2 (Homo sapiens, UniProt P05177); test: Inhibition of human recombinant CYP1A2 using 7-ethoxyresorufin as substrate in presence of glucose-6-phosphate, glucose-6-phosphate dehydrogenase and NADPH-generating system incubated for 50 mins by fluorometry; format: ADME
T2 sequence (P05177 whole entry): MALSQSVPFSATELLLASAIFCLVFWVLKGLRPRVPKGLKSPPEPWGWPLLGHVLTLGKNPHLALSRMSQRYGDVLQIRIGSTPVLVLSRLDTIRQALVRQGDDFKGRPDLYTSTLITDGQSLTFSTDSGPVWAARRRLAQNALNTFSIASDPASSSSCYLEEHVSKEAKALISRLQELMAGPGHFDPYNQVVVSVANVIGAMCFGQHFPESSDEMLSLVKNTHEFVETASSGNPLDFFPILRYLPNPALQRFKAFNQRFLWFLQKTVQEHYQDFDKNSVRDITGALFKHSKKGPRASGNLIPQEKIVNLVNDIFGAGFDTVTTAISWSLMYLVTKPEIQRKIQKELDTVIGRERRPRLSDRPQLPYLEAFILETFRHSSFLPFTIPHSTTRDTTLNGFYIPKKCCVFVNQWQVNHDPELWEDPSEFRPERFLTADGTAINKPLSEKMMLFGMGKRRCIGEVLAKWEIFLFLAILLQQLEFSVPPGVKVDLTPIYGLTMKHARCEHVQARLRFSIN

[3] = species: Homo sapiens; test: Selectivity index, ratio of IC50 for human recombinant CYP1A2 to IC50 for human recombinant CYP1B1 using 7-ethoxyresorufin as substrate in presence of glucose-6-phosphate, glucose-6-phosphate dehydrogenase and NADPH-generating system by fluorometry
[4] = species: Homo sapiens; test: Selectivity index, ratio of IC50 for human recombinant CYP1A1 to IC50 for human recombinant CYP1B1 using 7-ethoxyresorufin as substrate in presence of glucose-6-phosphate, glucose-6-phosphate dehydrogenase and NADPH-generating system by fluorometry
[5] = biological target: T3, Cytochrome P450 1B1 (Homo sapiens, UniProt Q16678); test: Inhibition of human recombinant CYP1B1 using 7-ethoxyresorufin as substrate in presence of glucose-6-phosphate, glucose-6-phosphate dehydrogenase and NADPH-generating system incubated for 35 mins by fluorometry
T3 sequence (Q16678 whole entry): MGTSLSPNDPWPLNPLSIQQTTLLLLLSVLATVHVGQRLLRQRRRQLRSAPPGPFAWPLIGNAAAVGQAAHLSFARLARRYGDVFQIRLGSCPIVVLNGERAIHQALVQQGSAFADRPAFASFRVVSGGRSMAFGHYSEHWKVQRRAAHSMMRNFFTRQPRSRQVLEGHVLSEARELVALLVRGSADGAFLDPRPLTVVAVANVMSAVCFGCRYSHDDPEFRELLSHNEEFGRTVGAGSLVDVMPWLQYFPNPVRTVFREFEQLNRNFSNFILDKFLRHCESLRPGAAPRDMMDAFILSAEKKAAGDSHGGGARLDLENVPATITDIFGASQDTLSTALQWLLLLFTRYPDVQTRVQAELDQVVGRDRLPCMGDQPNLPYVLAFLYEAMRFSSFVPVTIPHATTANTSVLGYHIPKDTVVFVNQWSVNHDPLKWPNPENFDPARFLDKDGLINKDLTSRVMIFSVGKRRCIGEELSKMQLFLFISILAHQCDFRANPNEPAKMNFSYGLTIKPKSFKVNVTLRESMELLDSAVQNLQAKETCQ

[6] = biological target: T3, Cytochrome P450 1B1; test: Potency index, ratio of IC50 for ANF to IC50 for test compound for inhibition of human recombinant CYP1B1 using 7-ethoxyresorufin as substrate in presence of glucose-6-phosphate, glucose-6-phosphate dehydrogenase and NADPH-generating system incubated for 35 mins by fluorometry

IC50 [1] | IC50 [2] | Ratio IC50 [3] | Ratio IC50 [4] | IC50 [5] | Structure (SMILES) | selectivity ratio at 35 min ([6]; read-out: Ratio IC50) | relative potency vs ANF (IC50 ratio) at 35 min [6]
94.9 nM | 804 nM | 77.3 | 9.1 | 10.4 nM | O/N=c1\cc(-c2cccc(Cl)c2)oc2c1ccc1ccccc12 | – | –
12.2 nM | 23.7 nM | 7.2 | 3.7 | 3.3 nM | O=c1cc(-c2ccccc2F)oc2c1ccc1ccccc12 | – | –
65.4 nM | 179 nM | 22.9 | 8.4 | 7.8 nM | S=c1cc(-c2ccccc2)oc2c1ccc1ccccc12 | – | –
46.4 nM | > 1000 nM | > 20.7 | 1 | 48.4 nM | O=c1cc(-c2ccc3ccccc3c2)oc2c1ccc1ccccc12 | – | –
35.8 nM | 178 nM | 46.8 | 9.4 | 3.8 nM | COc1cccc(-c2cc(=O)c3ccc4ccccc4c3o2)c1 | – | –
18.7 nM | 36.4 nM | 3.9 | 2 | 9.3 nM | O=c1cc(-c2ccncc2)oc2c1ccc1ccccc12 | – | –
31.9 nM | 51.8 nM | 4.9 | 3 | 10.6 nM | Fc1ccccc1-c1cc(=S)c2ccc3ccccc3c2o1 | – | –
32.6 nM | > 1000 nM | > 17.5 | 0.6 | 57 nM | O=c1cc(-c2ccccc2)sc2c1ccc1ccccc12 | – | –
3 nM | > 1000 nM | > 196 | 0.6 | 5.1 nM | COc1cc(-c2cc(=O)c3ccc4ccccc4c3o2)cc(OC)c1OC | – | –
72.8 nM | 305 nM | 33.5 | 8 | 9.1 nM | COc1cccc(-c2cc(=S)c3ccc4ccccc4c3o2)c1 | – | –
31.7 nM | 304 nM | 32.4 | 3.4 | 9.4 nM | S=c1cc(-c2cccc(Cl)c2)oc2c1ccc1ccccc12 | – | –
12.3 nM | 42.8 nM | 3.2 | 0.9 | 13.3 nM | Fc1ccc(-c2cc(=S)c3ccc4ccccc4c3o2)cc1 | – | –
44.4 nM | 75.2 nM | 9.4 | 5.6 | 8 nM | O/N=c1\cc(-c2ccc(Cl)cc2)oc2c1ccc1ccccc12 | – | –
25.1 nM | 134 nM | 26.8 | 5 | 5 nM | Fc1cccc(-c2cc(=S)c3ccc4ccccc4c3o2)c1 | – | –
45.8 nM | > 1000 nM | > 11.1 | 0.5 | 89.7 nM | O=c1cc(-c2ccccc2Cl)sc2c1ccc1ccccc12 | – | –
30.9 nM | 98.2 nM | 13.5 | 4.2 | 7.3 nM | COc1ccc(-c2cc(=O)c3ccc4ccccc4c3o2)cc1 | – | –
129 nM | 170 nM | 0.8 | 0.6 | 223 nM | O=C1C=C(c2ccccc2)S(=O)(=O)c2c1ccc1ccccc21 | – | –
53.1 nM | 91.5 nM | 6.2 | 3.6 | 14.8 nM | O=c1cc(-c2cccc(O)c2)oc2c1ccc1ccccc12 | – | –
37.9 nM | > 1000 nM | – | 0.8 | 47.7 nM | CN1CCN(c2cc(Cl)cc(-c3cc(=O)c4ccc5ccccc5c4o3)c2)CC1 | 0.12 | –

IC50 [1] | IC50 [2] | Ratio IC50 [3] | Ratio IC50 [4] | IC50 [5] | Structure (SMILES) | selectivity ratio at 35 min ([6]; read-out: Ratio IC50) | relative potency vs ANF (IC50 ratio) at 35 min [6]
25.3 nM | 23.2 nM | 3.7 | 4.1 | 6.2 nM | O=c1cc(-c2cccnc2)oc2c1ccc1ccccc12 | – | –
28.2 nM | > 1000 nM | > 53.2 | 1.5 | 18.8 nM | COc1cc(-c2cc(=S)c3ccc4ccccc4c3o2)cc(OC)c1OC | – | –
16.7 nM | 62.2 nM | 28.3 | 7.6 | 2.2 nM | O=c1cc(-c2cccc(F)c2)oc2c1ccc1ccccc12 | – | –
32.1 nM | 74.6 nM | 23.3 | 10 | 3.2 nM | O/N=c1\cc(-c2ccccc2)oc2c1ccc1ccccc12 | – | –
9.6 nM | 53.2 nM | 33.3 | 6 | 1.6 nM | S=c1cc(-c2ccc(Cl)cc2)oc2c1ccc1ccccc12 | – | 3
> 1000 nM | 699 nM | 2.8 | > 4 | 250 nM | O=C1C=C(c2cccc(Cl)c2)S(=O)(=O)c2c1ccc1ccccc21 | – | –
13.6 nM | 296 nM | 7.3 | 0.3 | 40.5 nM | O=c1cc(-c2cccc(Cl)c2)sc2c1ccc1ccccc12 | – | –
84.6 nM | 582 nM | 5.6 | 0.8 | 104 nM | O=c1cc(-c2ccccc2F)sc2c1ccc1ccccc12 | – | –
11.8 nM | 28.6 nM | 5.1 | 2.1 | 5.6 nM | O=c1cc(-c2ccc(F)c(F)c2)oc2c1ccc1ccccc12 | – | –
228 nM | 113 nM | 5.2 | 10.6 | 21.6 nM | O=c1cc(-c2ccccc2Cl)oc2c1ccc1ccccc12 | – | –
37.9 nM | 25.1 nM | 7.2 | 10.8 | 3.5 nM | O=c1cc(-c2ccccn2)oc2c1ccc1ccccc12 | – | –
25.5 nM | 157 nM | 37.4 | 6.1 | 4.2 nM | O=c1cc(-c2cc(Cl)cc(Cl)c2)oc2c1ccc1ccccc12 | – | –
34.6 nM | 762 nM | 31 | 1.4 | 24.6 nM | CN1CCN(c2cccc(-c3cc(=O)c4ccc5ccccc5c4o3)c2)CC1 | – | –
6.7 nM | 12.1 nM | 4.5 | 2.5 | 2.7 nM | O=c1cc(-c2ccc(F)cc2)oc2c1ccc1ccccc12 | – | –
9.6 nM | 183 nM | 44.7 | 2.3 | 4.1 nM | CN(C)c1cccc(-c2cc(=O)c3ccc4ccccc4c3o2)c1 | – | –
4.3 nM | 10.6 nM | 2.5 | 1 | 4.2 nM | O=c1cc(-c2ccc(Cl)cc2)oc2c1ccc1ccccc12 | – | –
9 nM | 212 nM | 4 | 0.2 | 51.9 nM | O=c1cc(-c2ccc(Cl)cc2)sc2c1ccc1ccccc12 | – | –
164 nM | > 1000 nM | – | 51.2 | 3.2 nM | COc1cc(Cl)cc(-c2cc(=O)c3ccc4ccccc4c3o2)c1 | – | –
